# According to DBAASP:
# Key:
# Assay in all cases: ≥ marks a high value that may be exact or a test limit, other limits are often not marked, values filed in µg/mL are converted to µM
# [1] = tested on: Salmonella enterica serovar Typhimurium
# [2] = tested on: Staphylococcus epidermidis
# [3] = tested on: Staphylococcus aureus ATCC 25923
# [4] = tested on: Candida albicans
# [5] = tested on: Escherichia coli UB1005
# [6] = tested on: Pseudomonas aeruginosa H103
# [7] = tested on: Pseudomonas aeruginosa PAO1
# [8] = tested on: Escherichia coli ATCC 25726
# [9] = tested on: Pseudomonas aeruginosa Ps4
# [10] = tested on: Escherichia coli ATCC 25922
# [11] = tested on: Klebsiella pneumoniae
# [12] = tested on: Staphylococcus aureus
# [13] = tested on: Escherichia coli
# [14] = tested on: Acinetobacter baumannii
# [15] = tested on: Enterococcus faecalis
# [16] = tested on: Pseudomonas aeruginosa
# [17] = tested on: Enterococcus faecalis ATCC 29212
smiles,measurement,setting,value
CC[C@H](C)[C@H](NC(=O)[C@H](CCCN=C(N)N)NC(=O)[C@H](Cc1ccccc1)NC(=O)[C@H](CCCN=C(N)N)NC(=O)[C@@H](N)CCCCN)C(=O)N[C@@H](CCCN=C(N)N)C(=O)N[C@H](C(=O)N[C@@H](CCCN=C(N)N)C(=O)N[C@H](C(=O)N[C@H](C(=O)N[C@@H](CCCN=C(N)N)C(=O)N[C@@H](CCCCN)C(N)=O)[C@@H](C)CC)C(C)C)C(C)C [KRFRIRVRVIRK],MIC,[1],1.84 µM
same,MIC,[2],0.492 µM
same,MIC,[3],3.69 µM
same,MIC,[4],7.38 µM
same,MIC,[5],0.983 µM
same,MIC,[6],3.69 µM
same,MIC,[7],7.38 µM
CC[C@H](C)[C@H](NC(=O)CNC(=O)[C@H](Cc1ccccc1)NC(=O)[C@H](CCSC)NC(=O)[C@@H](NC(=O)[C@H](CC(N)=O)NC(=O)[C@H](CCCCN)NC(=O)[C@H](Cc1ccccc1)NC(=O)[C@H](C)NC(=O)CNC(=O)[C@H](CCCCN)NC(=O)[C@H](Cc1ccccc1)NC(=O)CN)C(C)C)C(=O)N[C@@H](C)C(=O)N[C@@H](CCCCN)C(=O)N[C@@H](CO)C(=O)N[C@@H](C)C(=O)NCC(=O)N[C@@H](CCCCN)C(=O)N[C@@H](CO)C(=O)N[C@@H](C)C(=O)N[C@@H](CC(C)C)C(=O)N[C@@H](CC(N)=O)C(=O)N[C@@H](C)C(=O)N[C@@H](CC(C)C)C(=O)N[C@@H](C)C(=O)N[C@H]1CSSC[C@@H](C(=O)O)NC(=O)[C@H](CO)NC(=O)[C@H](CCCCN)NC(=O)[C@H](CC(=O)O)NC(=O)[C@H]([C@@H](C)CC)NC(=O)[C@H](CCCCN)NC1=O [GFKGAFKNVMFGIAKSAGKSALNALACKIDKSC],MIC,[3],9.18 µM
same,MIC,[8],9.18 µM
CC[C@H](C)[C@H](NC(=O)[C@H](CC(N)=O)NC(=O)[C@H](CCCN=C(N)N)NC(=O)[C@H](CCC(N)=O)NC(=O)[C@H](Cc1c[nH]c2ccccc12)NC(=O)[C@@H](N)Cc1ccccc1)C(=O)N[C@@H](CCCN=C(N)N)C(=O)N[C@@H](CCCCN)C(=O)N[C@@H](Cc1c[nH]c2ccccc12)C(=O)N[C@@H](CCCN=C(N)N)C(N)=O [FWQRNIRKWR],MIC,[9],≥ 83.9 µM
same,MIC,[10],83.9 µM
CC[C@H](C)[C@H](NC(=O)CNC(=O)[C@H](CCCN=C(N)N)NC(=O)[C@H](Cc1ccc(O)cc1)NC(=O)[C@H](CC(C)C)NC(=O)[C@H](Cc1cnc[nH]1)NC(=O)CNC(=O)[C@H](Cc1ccccc1)NC(=O)[C@@H](N)Cc1c[nH]c2ccccc12)C(=O)N[C@H](C(=O)N[C@@H](CCCCN)C(=O)N[C@H](C(=O)N[C@H](C(=O)N[C@@H](CCCCN)C(=O)N[C@@H](Cc1cnc[nH]1)C(=O)N[C@H](C(=O)N[C@@H](Cc1cnc[nH]1)C(=O)NCC(=O)N[C@@H](CC(C)C)C(=O)N[C@@H](CC(C)C)C(=O)N[C@@H](CCCCN)C(=O)NCC(=O)O)C(C)C)C(C)C)C(C)C)[C@@H](C)O [WFGHLYRGITKVVKHVHGLLKG],MIC,[11],1.2 µM
same,MIC,[12],19.6 µM
same,MIC,[13],2.5 µM
same,MIC,[2],2.5 µM
same,MIC,[14],1.2 µM
same,MIC,[15],1.2 µM
same,MIC,[16],4.9 µM
CC[C@H](C)[C@H](NC(=O)[C@H](CCCN=C(N)N)NC(=O)[C@@H](NC(=O)[C@H](CC(N)=O)NC(=O)[C@H](CCCN=C(N)N)NC(=O)[C@H](Cc1c[nH]c2ccccc12)NC(=O)[C@@H](N)Cc1ccccc1)[C@@H](C)CC)C(=O)N[C@@H](CCCN=C(N)N)C(=O)N[C@@H](CCCN=C(N)N)C(N)=O [FWRNIRIRR],MIC,[9],≥ 94.9 µM
CC[C@H](C)[C@H](NC(=O)[C@H](Cc1ccc(O)cc1)NC(=O)[C@@H](NC(=O)[C@H](CCCN=C(N)N)NC(=O)[C@H](Cc1c[nH]c2ccccc12)NC(=O)[C@H](CCCN=C(N)N)NC(=O)[C@H](Cc1ccccc1)NC(=O)[C@H](CCCCN)NC(=O)[C@@H](N)Cc1ccc(O)cc1)[C@@H](C)CC)C(=O)O [YKFRWRIYI],MIC,[1],≥ 92.8 µM
same,MIC,[2],1.4 µM
same,MIC,[3],2.9 µM
same,MIC,[4],> 92.8 µM
same,MIC,[5],2.9 µM
same,MIC,[6],≥ 92.8 µM
same,MIC,[17],2.9 µM
CC[C@H](C)[C@H](NC(=O)[C@@H](N)CCCN=C(N)N)C(=O)N[C@@H](CCCCN)C(=O)N[C@@H](CCCN=C(N)N)C(=O)N[C@@H](Cc1c[nH]c2ccccc12)C(=O)N[C@@H](Cc1c[nH]c2ccccc12)C(=O)N[C@@H](Cc1c[nH]c2ccccc12)C(=O)N[C@@H](Cc1c[nH]c2ccccc12)C(=O)N[C@@H](CCCN=C(N)N)C(=O)O [RIKRWWWWR],MIC,[1],2.7 µM
same,MIC,[2],1.3 µM
same,MIC,[3],1.3 µM
same,MIC,[4],5.4 µM
same,MIC,[5],2.7 µM
same,MIC,[6],≥ 86.3 µM
same,MIC,[17],10.8 µM
CC[C@H](C)[C@H](NC(=O)[C@H](CC(N)=O)NC(=O)[C@H](CCCN=C(N)N)NC(=O)[C@H](CCC(N)=O)NC(=O)[C@H](Cc1c[nH]c2ccccc12)NC(=O)[C@@H](N)Cc1ccccc1)C(=O)N[C@@H](CCCN=C(N)N)C(=O)N[C@@H](Cc1ccccc1)C(=O)N[C@H](C(=O)N[C@@H](CCCN=C(N)N)C(N)=O)C(C)C [FWQRNIRFVR],MIC,[9],≥ 176 µM
CC[C@H](C)[C@@H]1NC(=O)[C@H](C)NC(=O)[C@@H](NC(=O)[C@H](Cc2ccccc2)NC(=O)[C@@H](NC(=O)[C@@H](NC(=O)[C@@H]2CCCN2C(=O)[C@@H](NC(=O)[C@@H](NC(=O)[C@H](CCCCN)NC(=O)[C@H](C)NC(=O)[C@H](C)NC(=O)[C@@H](NC(=O)[C@H](CCCN=C(N)N)NC(=O)[C@H](CC(C)C)NC(=O)[C@@H](NC(=O)[C@H](C)NC(=O)[C@@H]2CCCN2C(=O)[C@H](CC(C)C)NC(=O)[C@@H](N)Cc2ccccc2)C(C)C)C(C)C)[C@@H](C)CC)C(C)C)[C@@H](C)O)C(C)C)CSSC[C@@H](C(=O)O)NC(=O)[C@H](CCCCN)NC(=O)[C@H](CCCCN)NC(=O)[C@H](CO)NC1=O [FLPAVLRVAAKIVPTVFCAISKKC],MIC,[3],3.11 µM
same,MIC,[8],24.3 µM
NC(=O)[C@H](CCCN=C(N)N)NC(=O)[C@H](CCCN=C(N)N)NC(=O)[C@H](Cc1c[nH]c2ccccc12)NC(=O)[C@H](CCCN=C(N)N)NC(=O)[C@H](Cc1c[nH]c2ccccc12)NC(=O)[C@@H](N)Cc1ccccc1 [FWRWRR],MIC,[9],≥ 124 µM
CC[C@H](C)[C@H](NC(=O)[C@H](CC(N)=O)NC(=O)[C@H](CCCN=C(N)N)NC(=O)[C@H](CCC(N)=O)NC(=O)[C@H](Cc1c[nH]c2ccccc12)NC(=O)[C@@H](N)Cc1ccccc1)C(=O)N[C@@H](Cc1ccccc1)C(=O)N[C@@H](CCCCN)C(=O)N[C@H](C(=O)N[C@@H](CCCN=C(N)N)C(N)=O)C(C)C [FWQRNIFKVR],MIC,[9],≥ 179 µM
CC[C@H](C)[C@H](NC(=O)CNC(=O)CNC(=O)[C@H](CCCCN)NC(=O)[C@H](Cc1ccccc1)NC(=O)[C@H](Cc1ccccc1)NC(=O)[C@H](CCCCN)NC(=O)[C@H](CCCCN)NC(=O)[C@H](CC(C)C)NC(=O)[C@@H](NC(=O)[C@H](CC(=O)O)NC(=O)[C@H](CCCCN)NC(=O)[C@@H](NC(=O)[C@@H](NC(=O)[C@@H]1CCCN1C(=O)[C@@H]1CCCN1C(=O)[C@@H](NC(=O)[C@H](CCCCN)NC(=O)[C@@H](N)Cc1ccccc1)[C@@H](C)CC)[C@@H](C)CC)C(C)C)[C@@H](C)O)C(=O)N[C@@H](C)C(=O)NCC(=O)N[C@H](C(=O)N[C@@H](CCSC)C(=O)NCC(=O)N[C@@H](CCC(N)=O)C(=O)O)C(C)C [FKIPPIVKDTLKKFFKGGIAGVMGQ],MIC,[3],5 µM
same,MIC,[8],20 µM
CC[C@H](C)[C@H](NC(=O)[C@H](CC(N)=O)NC(=O)[C@H](CCCN=C(N)N)NC(=O)[C@H](CCC(N)=O)NC(=O)[C@H](Cc1c[nH]c2ccccc12)NC(=O)[C@@H](N)Cc1ccccc1)C(=O)N[C@@H](CCCN=C(N)N)C(=O)N[C@@H](Cc1c[nH]c2ccccc12)C(=O)N[C@@H](CCCN=C(N)N)C(=O)N[C@@H](CCCN=C(N)N)C(N)=O [FWQRNIRWRR],MIC,[9],≥ 165 µM
CC[C@H](C)[C@H](NC(=O)[C@@H](N)Cc1ccccc1)C(=O)N[C@@H](CCCCN)C(=O)N[C@@H](Cc1c[nH]c2ccccc12)C(=O)N[C@@H](CCCCN)C(=O)N[C@@H](Cc1ccccc1)C(=O)N[C@@H](CCCN=C(N)N)C(=O)N[C@@H](Cc1c[nH]c2ccccc12)C(=O)N[C@@H](Cc1c[nH]c2ccccc12)C(=O)N[C@@H](CCCCN)C(=O)N[C@@H](Cc1c[nH]c2ccccc12)C(=O)N[C@@H](CCCN=C(N)N)C(=O)N[C@@H](CCCCN)C(=O)O [FIKWKFRWWKWRK],MIC,[1],1.5 µM
same,MIC,[2],0.7 µM
same,MIC,[3],0.7 µM
same,MIC,[4],3 µM
same,MIC,[5],1.5 µM
same,MIC,[6],6 µM
same,MIC,[17],1.5 µM
CC(C)C[C@@H]1NC(=O)CNC(=O)[C@H](CO)NC(=O)[C@H](CC(C)C)NC(=O)[C@H](C)NC(=O)[C@@H](NC(=O)[C@H](C)NC(=O)[C@@H](NC(=O)[C@H](CCCCN)NC(=O)[C@H](CCCCN)NC(=O)CNC(=O)[C@H](C)NC(=O)CNC(=O)[C@H](Cc2ccccc2)NC(=O)[C@H](CC(C)C)NC(=O)[C@H](CO)NC(=O)CNC(=O)[C@H](CC(C)C)NC(=O)[C@H](CC(C)C)NC(=O)CN)C(C)C)CSSC[C@@H](C(=O)O)NC1=O [GLLGSLFGAGKKVACALSGLC],MIC,[3],63.6 µM
same,MIC,[8],31.8 µM
